Laboratory results from the supplement of paper PMC8967900.

System: COG-LL-394h
Experiment: selective drug sensitivity score (sDSS, relative to normal bone marrow) (sDSS (score)); higher = more potent and effective on the cell line relative to normal bone marrow cells
Details: 72 h
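Also: ALL cell lines in 384-well plates, five doses spanning 10,000-fold, each plate scaled between vehicle and 100 µmol/L benzalkonium chloride controls, sDSS an adapted area-under-curve metric.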

Row | Structure (SMILES) | selective drug sensitivity score
1 | CCCCCOC(=O)Nc1nc(=O)n([C@@H]2O[C@H](C)[C@@H](O)[C@H]2O)cc1F [Capecitabine] (top concentration 10000 nM) | -0.06
2 | Nc1nc(Cl)nc2c1ncn2[C@H]1C[C@H](O)[C@@H](CO)O1 [Cladribine] (top concentration 1000 nM) | -16
3 | CCN(CC)CCOc1ccc(/C(=C(/Cl)c2ccccc2)c2ccccc2)cc1 [Clomifene] (top concentration 10000 nM) | -0.08
4 | CO[C@@H](C(=O)N1Cc2[nH]nc(NC(=O)c3ccc(N4CCN(C)CC4)cc3)c2C1)c1ccccc1 [Danusertib] (top concentration 10000 nM) | 2.64
5 | CC[C@@](C)(Nc1ccnc(-c2c[nH]c3ncccc23)n1)C(=O)NCC(F)(F)F [Decernotinib] (top concentration 10000 nM) | -3.94
6 | CN1CCN(c2ccc3nc(-c4c(N)c5c(F)cccc5[nH]c4=O)[nH]c3c2)CC1 [Dovitinib] (top concentration 10000 nM) | 1.36
7 | CC(C)(O)CNc1nc(Nc2ccnc(C(F)(F)F)c2)nc(-c2cccc(C(F)(F)F)n2)n1 [Enasidenib] (top concentration 10000 nM) | 1.7
8 | CN1CCN(c2ccc(C(=O)Nc3n[nH]c4ccc(Cc5cc(F)cc(F)c5)cc34)c(NC3CCOCC3)c2)CC1 [Entrectinib] (top concentration 1000 nM) | 0.2
9 | CNC(=O)c1ccc(N2C(=S)N(c3ccc(C#N)c(C(F)(F)F)c3)C(=O)C2(C)C)cc1F [Enzalutamide] (top concentration 10000 nM) | -0.32
10 | Cn1cc(C2=C(c3cn(C4CCN(Cc5ccccn5)CC4)c4ccccc34)C(=O)NC2=O)c2ccccc21 [Enzastaurin] (top concentration 10000 nM) | 6.86
11 | NS(=O)(=O)NCCNc1nonc1/C(=N/O)Nc1ccc(F)c(Br)c1 [Epacadostat] (top concentration 10000 nM) | -0.26
12 | CCOc1ccccc1-n1c(C(C)N2CCN(C(=O)COc3ccc(Cl)cc3)CC2)nc2ccccc2c1=O (stereo not given) [Erastin] (top concentration 10000 nM) | -0.76
13 | COc1cc(OC)cc(N(CCNC(C)C)c2ccc3ncc(-c4cnn(C)c4)nc3c2)c1 [Erdafitinib] (top concentration 1000 nM) | -0.56
14 | CC(C)(C)NC(=O)[C@H]1CC[C@H]2[C@@H]3CC[C@H]4NC(=O)C=C[C@]4(C)[C@H]3CC[C@]12C [Finasteride] (top concentration 10000 nM) | -0.52
15 | O=c1[nH]c(=O)n([C@H]2C[C@H](O)[C@@H](CO)O2)cc1F [Floxuridine] (top concentration 10000 nM) | 3.62
16 | CNc1nc(Nc2cn(C(C)(C)C#N)nc2C)ncc1C(F)(F)F [GNE-0877] (top concentration 1000 nM) | 0
17 | CCCc1cc(C)[nH]c(=O)c1CNC(=O)c1cc(-c2ccnc(N3CCN(C)CC3)c2)cc2c1cnn2C(C)C [GSK343] (top concentration 1000 nM) | 0.1
18 | O=C(O)c1ccc(O)c2ncccc12 [IOX-1] (top concentration 100000 nM) | -1.56

System: NALL-1
Experiment: as above
Details: 72 h

Row | Structure (SMILES) | selective drug sensitivity score
19 | CCCCCOC(=O)Nc1nc(=O)n([C@@H]2O[C@H](C)[C@@H](O)[C@H]2O)cc1F [Capecitabine] (top concentration 10000 nM) | -0.06
20 | Nc1nc(Cl)nc2c1ncn2[C@H]1C[C@H](O)[C@@H](CO)O1 [Cladribine] (top concentration 1000 nM) | 1.86
21 | CCN(CC)CCOc1ccc(/C(=C(/Cl)c2ccccc2)c2ccccc2)cc1 [Clomifene] (top concentration 10000 nM) | 1.22
22 | CO[C@@H](C(=O)N1Cc2[nH]nc(NC(=O)c3ccc(N4CCN(C)CC4)cc3)c2C1)c1ccccc1 [Danusertib] (top concentration 10000 nM) | 13.5
23 | CC[C@@](C)(Nc1ccnc(-c2c[nH]c3ncccc23)n1)C(=O)NCC(F)(F)F [Decernotinib] (top concentration 10000 nM) | -3.94
24 | CN1CCN(c2ccc3nc(-c4c(N)c5c(F)cccc5[nH]c4=O)[nH]c3c2)CC1 [Dovitinib] (top concentration 10000 nM) | -0.14
25 | CC(C)(O)CNc1nc(Nc2ccnc(C(F)(F)F)c2)nc(-c2cccc(C(F)(F)F)n2)n1 [Enasidenib] (top concentration 10000 nM) | -0.8
26 | CN1CCN(c2ccc(C(=O)Nc3n[nH]c4ccc(Cc5cc(F)cc(F)c5)cc34)c(NC3CCOCC3)c2)CC1 [Entrectinib] (top concentration 1000 nM) | -0.3
27 | CNC(=O)c1ccc(N2C(=S)N(c3ccc(C#N)c(C(F)(F)F)c3)C(=O)C2(C)C)cc1F [Enzalutamide] (top concentration 10000 nM) | -0.82
28 | Cn1cc(C2=C(c3cn(C4CCN(Cc5ccccn5)CC4)c4ccccc34)C(=O)NC2=O)c2ccccc21 [Enzastaurin] (top concentration 10000 nM) | -0.34
29 | NS(=O)(=O)NCCNc1nonc1/C(=N/O)Nc1ccc(F)c(Br)c1 [Epacadostat] (top concentration 10000 nM) | 3.74
30 | CCOc1ccccc1-n1c(C(C)N2CCN(C(=O)COc3ccc(Cl)cc3)CC2)nc2ccccc2c1=O (stereo not given) [Erastin] (top concentration 10000 nM) | 6.64
31 | COc1cc(OC)cc(N(CCNC(C)C)c2ccc3ncc(-c4cnn(C)c4)nc3c2)c1 [Erdafitinib] (top concentration 1000 nM) | 5.34
32 | CC(C)(C)NC(=O)[C@H]1CC[C@H]2[C@@H]3CC[C@H]4NC(=O)C=C[C@]4(C)[C@H]3CC[C@]12C [Finasteride] (top concentration 10000 nM) | 3.48
33 | O=c1[nH]c(=O)n([C@H]2C[C@H](O)[C@@H](CO)O2)cc1F [Floxuridine] (top concentration 10000 nM) | 21
34 | CNc1nc(Nc2cn(C(C)(C)C#N)nc2C)ncc1C(F)(F)F [GNE-0877] (top concentration 1000 nM) | 0
35 | CCCc1cc(C)[nH]c(=O)c1CNC(=O)c1cc(-c2ccnc(N3CCN(C)CC3)c2)cc2c1cnn2C(C)C [GSK343] (top concentration 1000 nM) | 0
36 | O=C(O)c1ccc(O)c2ncccc12 [IOX-1] (top concentration 100000 nM) | 2.24

System: MHH-CALL-3
Experiment: as above
Details: 72 h

Row | Structure (SMILES) | selective drug sensitivity score
37 | CCCCCOC(=O)Nc1nc(=O)n([C@@H]2O[C@H](C)[C@@H](O)[C@H]2O)cc1F [Capecitabine] (top concentration 10000 nM) | -0.06
38 | Nc1nc(Cl)nc2c1ncn2[C@H]1C[C@H](O)[C@@H](CO)O1 [Cladribine] (top concentration 1000 nM) | 11.7
39 | CCN(CC)CCOc1ccc(/C(=C(/Cl)c2ccccc2)c2ccccc2)cc1 [Clomifene] (top concentration 10000 nM) | 6.52
40 | CO[C@@H](C(=O)N1Cc2[nH]nc(NC(=O)c3ccc(N4CCN(C)CC4)cc3)c2C1)c1ccccc1 [Danusertib] (top concentration 10000 nM) | 13.8
41 | CC[C@@](C)(Nc1ccnc(-c2c[nH]c3ncccc23)n1)C(=O)NCC(F)(F)F [Decernotinib] (top concentration 10000 nM) | -1.94
42 | CN1CCN(c2ccc3nc(-c4c(N)c5c(F)cccc5[nH]c4=O)[nH]c3c2)CC1 [Dovitinib] (top concentration 10000 nM) | -0.14
43 | CC(C)(O)CNc1nc(Nc2ccnc(C(F)(F)F)c2)nc(-c2cccc(C(F)(F)F)n2)n1 [Enasidenib] (top concentration 10000 nM) | 0.8
44 | CN1CCN(c2ccc(C(=O)Nc3n[nH]c4ccc(Cc5cc(F)cc(F)c5)cc34)c(NC3CCOCC3)c2)CC1 [Entrectinib] (top concentration 1000 nM) | -1.2
45 | CNC(=O)c1ccc(N2C(=S)N(c3ccc(C#N)c(C(F)(F)F)c3)C(=O)C2(C)C)cc1F [Enzalutamide] (top concentration 10000 nM) | -0.82
